Reference: paper PMC9486805, “Identification of a Phage Display-Derived Peptide Interacting with the N-Terminal Region of Factor VII Activating Protease (FSAP) Enables Characterization of Zymogen Activation” (ACS Chemical Biology, 2022)
Entries after “also recorded” stand apart in the source; their conditions may differ.

Tests used:
Format in all cases: biochemical
[1] = biological target: T1, pro-FSAP in human plasma (Homo sapiens, UniProt Q14520); experiment: Formation of FSAP–alpha2-antiplasmin complexes in plasma; conditions: hirudin plasma 1:12, 1 h at 37 °C; NNKC9/41 0–25 μM, histones 0–25 μg/mL; three donors (Fig 4C)
T1 construct: from tissue; host or cells: human hirudin or citrate plasma from healthy donors, diluted 1:12
Method: Figure 4 Comparison of different methods to measure pro-FSAP activation in plasma: (A) hirudin plasma (1:12 dilution) was incubated with histones (0–25 μg/mL), NNKC9/41, or its Ser–Ser linear control (0–25 μM) and the fluorogenic substrate turnover (Ac–Ala–Lys–Nle–Arg–AMC) was monitored. (B) From the same experiment as in (A) after 1 h incubation at 37 °C, samples were captured on anti-FSAP coated wells and the conversion of added pro-uPA to active uPA was measured by determining the turnover of the chromogenic substrate PNAPEP1344 (25 μM). (C) From the same experiment as in (A) after 1 h incubation at 37 °C, samples were captured on anti-FSAP coated wells and α2-antiplasmin antibody was used to detect the formation of FSAP−α2-antiplasmin complexes. […] In (F), the samples with MA-FSAP-570 were not analyzed since this antibody would interfere in the sandwich ELISA. […]
Human citrate plasma (0.38% w/v) or hirudin plasma (25 μg/mL Lepirudin) was obtained from five healthy donors. […] Hydrolysis of the fluorogenic substrates was measured using a Synergy HI plate reader with excitation at 320 nm and emission at 460 nm at 37 °C for 60 min. The maximal velocity was calculated from the linear part of the progress curve. […]

[2] = biological target: T1, pro-FSAP in human plasma; experiment: Western blotting of activated plasma, FSAP-inhibitor complex; conditions: hirudin and citrate plasma 1:2, 1 h at 37 °C, non-reducing; NNKC9/41 25 µM (Fig S6)
Method: Hirudin plasma Citrate plasma
Fig S6. Western blotting of activated plasma: Hirudin or citrate plasma (1:2) dilution was incubated for 1 h at 37 °C with test substances and the samples were analyzed by Western blotting with an anti-FSAP polyclonal antibody under non-reducing conditions. Top panel: NNKC9/41 and Ser-Ser cyclic peptides (25 µM) were compared to histones (50 µg/ml). Lower panel: 100, 50, 25 and 12.5 µM NNKC9/41 and Ser-Ser cyclicpeptide were compared. Arrows on the right indicate the presence of FSAP and FSAP-inhibitor complexes and MW markers are indicated on the left.Results are representative of 3 independent experiments. […]

[3] = test system: uPA; experiment: Specificity: uPA; conditions: uPA 20 nM; peptide 0-50 μM; PNAPEP 1344 (Fig S7)
Method: Fig S7. […]
µM). Pro-uPA (100 nM) and uPA (20 nM) with PNAPEP 1344 (250 µM). Factor X (50 […]
Bend, IN, USA) except plasminogen and FSAP, which were isolated in house; and pro-uPA was from Grünenthal (Stolberg, Germany). All chromogenic substrates were from Hyphen Biomed (Neuville Sur Oise, France). Experiments were carried out in TBS with Tween-20 (0.1 % wt/ vol) BSA (0.3% wt/vol) and CaCl2 (2 mM). Absorbance at 405 nm was measured over time and the enzyme activity is depicted was measured in duplicates (mean + or -range) and similar results were obtained in 3

[4] = biological target: T2, pro-FSAP purified from human plasma (Homo sapiens, UniProt Q14520); experiment: Pro-FSAP activation assay, purified pro-FSAP, chromogenic substrate S-2288
T2 construct: Pro-FSAP was isolated from human plasma as described before; from tissue; host or cells: human plasma
Method: Figure 1 Isolation of pro-FSAP binding peptides and their activity: (A) strategy to isolate high-affinity phages from the NNKC9 and NNK11 libraries that bind to pro-FSAP. To select for strong binders, an excess of free pro-FSAP protein was used for competitive elution of low-affinity binders. High-affinity binders retained on the beads were analyzed further. The sequences of major positive clones identified through an ELISA-based binding assay from the NNKC9 and NNK11 libraries are shown. (B) NNK11/189 and scrambled controls (0–50 μM) and histones (0–50 μg/mL) were added to purified pro-FSAP (1.0 μg/mL) and the turnover of the chromogenic substrate S-2288 (200 μM) was measured. (C) NNKC9/41 was compared to a peptide that was synthetically monocyclized (Cys–Cys cyclic), a peptide with Ser residues instead of Cys at both ends (Ser–Ser linear), a peptide with Ser residues at the end cyclized head to tail (Ser–Ser cyclic), and a scrambled peptide in a pro-FSAP activation assay. (D) Hirudin plasma (1:12 dilution) was incubated with histones (25 μg/mL), NNKC9/41, or Ser–Ser linear control (each, 25 μM), the fluorogenic substrate turnover (Ac–Ala–Lys–Nle–Arg–AMC) was monitored in duplicate wells, and results from a single well are shown. In panels (B) and (C), results are shown as mean + range (duplicate wells). Results were replicated with five different batches of NNKC9/41 (panels (B) and (C)).
Pro-FSAP was isolated from human plasma as described before.[14] The content of the zymogen form varied from 50% to 90% due to autoactivation during the purification process. Histones, isolated from the calf thymus, were obtained from Sigma-Aldrich (Oslo, Norway). FSAP activity assays were performed as described previously.[51] In brief, microtiter wells were blocked with TBS (25 mM Tris–HCl, pH 7.5, and 150 mM NaCl) containing 3% (w/v) BSA for 1 h and washed with TBS-T. The standard assay consisted of TBS-T with 0.3% (w/v) BSA and CaCl2 (2 mM) 1 μg/mL (15 nM) plasma purified pro-FSAP and 250 μM chromogenic substrate S-2288 (D-Ile-L-Pro-L-Arg-p-nitroaniline dihydrochloride) (Haemochrome Diagnostica, Essen, Germany) and was followed at 37 °C at 405 nm in a microplate reader Synergy HI plate reader (BioTek Instruments, Winooski). In some experiments, a fluorescent substrate of FSAP[35] was used.

T2 sequence (Q14520 24-560): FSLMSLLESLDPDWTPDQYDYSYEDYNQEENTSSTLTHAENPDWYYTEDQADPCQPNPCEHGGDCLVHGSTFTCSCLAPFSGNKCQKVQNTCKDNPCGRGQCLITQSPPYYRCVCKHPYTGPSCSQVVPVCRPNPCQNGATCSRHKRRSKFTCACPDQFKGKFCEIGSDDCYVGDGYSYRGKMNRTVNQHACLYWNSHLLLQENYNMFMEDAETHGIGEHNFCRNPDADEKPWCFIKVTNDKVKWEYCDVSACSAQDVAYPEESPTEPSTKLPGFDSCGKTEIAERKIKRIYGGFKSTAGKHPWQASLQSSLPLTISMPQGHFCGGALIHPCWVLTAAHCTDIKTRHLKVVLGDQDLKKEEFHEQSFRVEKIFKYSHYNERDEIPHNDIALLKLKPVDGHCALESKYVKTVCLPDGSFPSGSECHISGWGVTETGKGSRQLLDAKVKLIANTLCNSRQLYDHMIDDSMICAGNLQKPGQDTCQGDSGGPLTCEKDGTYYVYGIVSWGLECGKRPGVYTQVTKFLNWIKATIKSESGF
T1 sequence (Q14520 24-560): as above

Sequence: CRGAMWMYKRC [NNKC9/41]
- FSAP–alpha2-antiplasmin complex formation [1]: weaker than histones; also recorded: concentration-dependent effect
- FSAP-inhibitor complex band [2]: emergence of an FSAP-inhibitor complex band
- effect on activity [3]: did not influence the activity
- effect on pro-FSAP activation ([4]; purified pro-FSAP 1.0 μg/mL, peptides 0–50 μM, histones 0–50 μg/mL, S-2288 (200 μM in legend b10, 250 μM in method b60), 37 °C, 405 nm, duplicate wells): able to robustly activate pro-FSAP
- Maximal activation ([4]; purified pro-FSAP, S-2288, linear synthetic peptide stored under oxidative conditions, duplicate wells, five batches): 2–2.5 fold
- selectivity for pro-FSAP activation ([4]; versus plasminogen, pro-urokinase, factor XII, prothrombin, factor X and active enzymes): very high selectivity
